The EC50 is the concentration at which the effect is half-maximal. Read a high EC50 as weaker potency. Usually bioavailability stands for the share of a dose that reaches the circulation, judged against a reference dose that is usually intravenous. High values mean much systemic uptake, low ones little systemic uptake. Usually AUC(0-inf) stands for total exposure, with the tail of the curve extrapolated. Read a low AUC(0-inf) as less exposure. Usually clearance stands for the rate of elimination divided by the concentration. A low value points to a low capacity for elimination. By Cmax is commonly meant the peak of the concentration-time curve. Usually Tmax stands for the time from dosing to the highest level.

The results in this text go back to article PMC7114283 (Antiviral Research, 2010).

Read-outs that look alike come from different tables or passages of the source. Marks after values point to notes of the source that are not given here. Bounds are passed on as bounds.

In data set [1] the test system is SARS CoV Urbani strain. The format is cell-based, human severe acute respiratory syndrome coronavirus.
Data set [2] concerns Vero 76 cells.
Data set [3] concerns SARS CoV Urbani strain.
The test system of data set [4] is Vero 76 cells. The source holds these as a separate data set.
Data set [5] in a line: in vitro. The note with it: swine.
The test system of data set [6] is TGEV. Put plainly: microbe, parasite or virus in culture. The note with it: Alphacoronavirus 1.
For data set [7], the system named is TGEV.
Data set [8] deals with SARS CoV 3CLpro (Severe acute respiratory syndrome coronavirus, UniProt P0C6X7). The format is biochemical.
Data set [9] has as its target TGEV 3CLpro (Porcine transmissible gastroenteritis coronavirus, UniProt P0C6Y5). It counts as biochemical, transmissible gastroenteritis virus.
Data set [10] in a line: in vivo. The note with it: male, Sprague-Dawley, rat, 3 mg/kg.
For data set [11] the following is noted: male, Sprague-Dawley, rat, in vivo, 3 mg/kg.
Data set [12] relates to ST cells.

TGEV 3CLpro, sequence (P0C6Y5 2879-3180 limits assumed): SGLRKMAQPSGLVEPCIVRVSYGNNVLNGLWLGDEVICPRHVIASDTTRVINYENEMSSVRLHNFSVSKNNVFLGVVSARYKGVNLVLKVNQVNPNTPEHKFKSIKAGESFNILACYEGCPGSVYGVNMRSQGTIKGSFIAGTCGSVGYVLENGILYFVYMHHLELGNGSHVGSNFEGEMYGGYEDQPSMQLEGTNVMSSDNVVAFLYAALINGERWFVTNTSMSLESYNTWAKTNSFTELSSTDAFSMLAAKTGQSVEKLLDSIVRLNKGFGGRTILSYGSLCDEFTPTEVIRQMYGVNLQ

Regarding interferon alfacon-1 [Infergen™], the “Neutral red uptake assay EC50” value in [1] stood at 2.4 µg/mL. In data set [2], the “Neutral red uptake assay CC50” value was over 130 µg/mL. For the same molecule, in data set [3], the “Visual assay EC50” value was under 0.32 µg/mL and the “Visual assay SI (CC50/EC50)” value is given as over 320. In [4], the “Visual assay CC50” value is over 100 µg/mL.

As to `COc1ccc2c3c(c4cc(OC)c(OC)cc4c2c1)CN1CCC[C@H]1[C@@H]3O` [Compound 1e, tylophorinine], the CC50 in data set [5] was over 100 µM. Also, in [6], the EC50 is 82 ± 8 nM. Besides, the “SI (CC50/EC50)” value in [7] is on record as over 1220.

Take `COc1cc2c3c(c4cc(OC)c(OC)cc4c2cc1OC)CN1CCC[C@@H]1C3` [Compound 1a, Tylophorine]: in data set [8], the “Inhibition of SARS CoV 3CLpro enzymatic activity” value was “did not significantly inhibit”. Moreover, the CC50 in [5] is over 100 µM. The “Visual assay SI (CC50/EC50)” value in data set [3] came to 88. Moreover, in data set [9], the “Inhibition of TGEV 3CLpro enzymatic activity” value is given as “did not significantly inhibit”. The molecule also showed a concentration giving a half-maximal response (EC50) in data set [6] of 58 ± 4 nM. In [10], this molecule gave a bioavailability of 65.7%. For the same molecule, in [10] (iv), the AUC(0-inf) turned out to be 772 ng·h/mL and the clearance was determined as 66.8 mL/min/kg. In addition, in data set [10] (po), the AUC(0-inf) was determined as 507 ng·h/mL, the concentration peaked (Cmax) at 31.9 ng/mL and the time to peak (Tmax) turned out to be 1.8 h. In addition, in data set [11] (iv), the Ctrough turned out to be 1.1 ng/mL and the “t1/2 (apparent elimination half-life)” value is on record as 3.9 ^b h. This molecule yielded a Ctrough in [11] (po) of 3.0 ng/mL. Moreover, the “SI (CC50/EC50)” value in data set [7] is recorded as over 1715.

Turning to `COc1cc2c3c(c4cc(OC)c(OC)cc4c2cc1OC)CN1CCC[C@@H]1C3` [1a′, tylophorine], the CC50 in data set [12] (swine) was over 100 µM. Further, in data set [7], the EC50 came to 95 ± 17 nM and the “SI (CC50/EC50)” value is recorded as over 1053.

With “3,14a-dihydroxy-6,7-dimethoxyphenanthroindolizidine [Compound 1h]”, the CC50 in data set [12] worked out at 31.6 µM. In [7], the EC50 was determined as 18 ± 1 nM and the “SI (CC50/EC50)” value is given as 1719.
